Measured values published in US11220503B2, “Phthalazine derivatives, preparation method, pharmaceutical composition and usage thereof” (Shanghai SIMR Biotech Co., Ltd., priority 2015, dated 2022).

How the values were obtained:
[1] = target: T1, α5β3γ2 receptor (Homo sapiens, UniProt P18507+P31644); assay: Supplementary data for cell level screening: new electrophysiology method (I. Lecker et al); assay type: cell-based; conditions: for Inverse agonism efficacy(%): new method, CsCl intracellular solution, GABA 0.1˜0.3 CM, other procedures as previous method; for inverse agonism efficacy of the compound/α5IA inverse agonism efficacy: ratio to the α5IA reference run above in the table (r4 or r29)
T1 construct: expressed in transfected cells; host or cells: HEK-293 (stably transfected)
T1 sequence (P31644 32-462): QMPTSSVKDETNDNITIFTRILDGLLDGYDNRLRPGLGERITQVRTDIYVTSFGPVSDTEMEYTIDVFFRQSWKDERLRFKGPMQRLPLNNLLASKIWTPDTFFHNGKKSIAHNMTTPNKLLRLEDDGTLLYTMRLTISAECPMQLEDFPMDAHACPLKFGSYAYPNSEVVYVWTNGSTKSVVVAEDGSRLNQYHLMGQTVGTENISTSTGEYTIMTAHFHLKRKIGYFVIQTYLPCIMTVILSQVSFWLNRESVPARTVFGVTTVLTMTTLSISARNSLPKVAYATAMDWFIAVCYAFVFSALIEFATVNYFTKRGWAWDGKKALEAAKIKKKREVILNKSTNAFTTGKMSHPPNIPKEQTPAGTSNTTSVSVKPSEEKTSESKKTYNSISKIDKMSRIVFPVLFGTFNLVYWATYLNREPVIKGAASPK
T1 sequence (P28472 26-473 isoform P28472-2 partner limits assumed): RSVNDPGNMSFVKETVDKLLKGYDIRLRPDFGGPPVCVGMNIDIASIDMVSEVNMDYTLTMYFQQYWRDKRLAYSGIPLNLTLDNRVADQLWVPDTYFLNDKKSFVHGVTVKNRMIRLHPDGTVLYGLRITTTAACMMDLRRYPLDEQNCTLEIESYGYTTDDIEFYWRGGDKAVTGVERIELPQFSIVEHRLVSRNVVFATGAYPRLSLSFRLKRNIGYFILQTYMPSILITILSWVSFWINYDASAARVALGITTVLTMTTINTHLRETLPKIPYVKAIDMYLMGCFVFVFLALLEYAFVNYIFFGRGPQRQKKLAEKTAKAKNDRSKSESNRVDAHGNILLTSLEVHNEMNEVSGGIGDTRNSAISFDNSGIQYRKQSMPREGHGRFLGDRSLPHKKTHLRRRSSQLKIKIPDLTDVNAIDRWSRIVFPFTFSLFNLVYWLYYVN
T1 sequence (P18507 40-475): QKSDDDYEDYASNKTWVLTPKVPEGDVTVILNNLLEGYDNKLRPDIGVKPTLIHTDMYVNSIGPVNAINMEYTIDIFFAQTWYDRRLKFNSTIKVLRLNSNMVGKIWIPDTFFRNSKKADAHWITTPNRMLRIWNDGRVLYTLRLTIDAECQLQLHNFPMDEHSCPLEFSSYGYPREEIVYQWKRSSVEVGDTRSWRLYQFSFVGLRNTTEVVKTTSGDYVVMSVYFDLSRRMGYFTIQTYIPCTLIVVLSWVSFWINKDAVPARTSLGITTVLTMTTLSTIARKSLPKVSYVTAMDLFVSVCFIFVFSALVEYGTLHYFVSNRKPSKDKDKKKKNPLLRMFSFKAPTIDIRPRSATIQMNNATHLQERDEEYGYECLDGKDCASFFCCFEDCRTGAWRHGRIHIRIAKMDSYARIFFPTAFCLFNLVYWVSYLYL

[2] = Tissue distribution of the compounds (brain/plasma); assay type: in vivo; conditions: brain and plasma, po; rat, 10 mg/kg p.o. in 50% PEG400, one hour; read-out: Brain/Plasma ratio
Description: (§1) The distribution ratio of blood brain tissue was calculated by comparing the concentration of compound in rat plasma and brain tissue. The experimental animals were divided into two groups, the plasma group and the brain group, each with three. Rats were administed compounds in 50% PEG400 p.o. at a dose of 10 mg compound to be tested/kg. One hour later, plasma and brain samples were taken. Concentrations of compounds in brain and plasma were detected using LC-MS/MS-A (Triple Quad 5500) assay and analyzed using Phoenix WinNonlin.

[3] = Compound tissue distribution (brain/plasma); assay type: in vivo; conditions: brain and plasma, po; rat, 10 mg/kg p.o. in 50% PEG400, one hour; read-out: Brain/Plasma ratio
Description: as §1, with “To measure brain to plasma ratio, rats” for “Rats”, “LC-MS/MS-AJ” for “LC-MS/MS-A”
We also measured the brain to plasma ratio of compound #24. The experimental animals were divided into two groups, the plasma group and the brain group, each with three. To measure the brain to plasma ratio, Rats were administered compounds (1 mg/kg in 5% DMSO+70% PEG400+25% H2O p.o.). One hour later, plasma and brain samples were taken. Concentrations of compounds in brain and plasma were detected using a LC-MS/MS-AJ (Triple Quad 5500) assay and analyzed using Phoenix WinNonlin.

For CCNC(=O)c1ccc(COc2nn3c(-c4cc(C)on4)nnc3c3ccccc23)nc1 [Compound 07, N-ethyl-6-(((3-(5-methylisoxazol-3-yl)-[1,2,4]triazolo[3,4-a]phthalazin-6-yl)oxy)methyl)nicotinamide], the “Inverse agonism efficacy(%)” value [1] was −21.1667%, the “inverse agonism efficacy of the compound/α5IA inverse agonism efficacy” value [1] was 1.219 and the Kp at 1 h [2] was < 0.01. The Kp at 1 h [3] was < 0.01.

In the case of COCCNC(=O)c1ccc(COc2nn3c(-c4cc(C)on4)nnc3c3ccccc23)nc1 [Compound 08, N-(2-methoxyethyl)-6-(((3-(5-methylisoxazol-3-yl)-[1,2,4]triazolo[3,4-a]phthalazin-6-yl)oxy)methyl)nicotinamide], the “Inverse agonism efficacy(%)” value [1] is reported as −35.375%, the “inverse agonism efficacy of the compound/α5IA inverse agonism efficacy” value [1] is reported as 1.902 and the Kp at 1 h [2] is reported as < 0.01. For the same compound, the Kp at 1 h [3] was < 0.01.
